Earlier results in patent publication US20210379090A1, “REMDESIVIR ORAL DELIVERY SYSTEM” (ABON PHARMACEUTICALS, LLC, priority 2020, published 2021).

Legend:
[1] = test system: COVID-19; settings: received early within 10 days of symptom onset vs treated late after more than 10 days of symptoms
[2] = would likely result in almost complete first-pass clearance after oral delivery

In the case of Remdesivir, the clinical outcome [1] is given as “improved outcomes”, the solubility in water is given as “practically insoluble” and the hepatic stability [2] is given as “poor hepatic stability”.
